Measured values reported in US6426229B1, “Chelating agent and detergent comprising the same” (Mitsubishi Rayon Co., Ltd., priority 1995, dated 2002).

Columns and labels:
[1] = reported value; cited from earlier work
[2] = Biodegradability, 301C Modified MITI Test (1) (OECD guideline)
[3] = Storage of aqueous solution or slurry for 60 days: HPLC analysis of components and appearance; format: physicochemical; conditions: keeping temperature 50° C.
Description: (§1) This aqueous solution was kept at 50° C. for 60 days, and, then, the components were analyzed by HPLC and, simultaneously, the appearance of the solution was observed.
as §1
This aqueous solution was kept at 50° C. for 60 days. Then, the components were analyzed by HPLC and, simultaneously, the appearance of the solution was observed.

Compound: O=C(O)C[C@@H](C(=O)O)N(CC(=O)O)CC(=O)O [S-ASDA, (S)-aspartic acid-N,N-diacetic acid]
- chelate stability constant for calcium [1]: 5.8

Compound: O=C(O)CN(CC(=O)O)CC(=O)O [NTA, nitrilotriacetic acid, reference compound]
- chelate stability constant for calcium [1]: 6.4

Compound: O=C(O)CN(CCS(=O)(=O)O)CC(=O)O [TUDA, taurine-N,N-diacetic acid]
- chelate stability constant for calcium [1]: 4.2

Compound: O=C(O)CN[C@@H](CC(=O)O)C(=O)O [S-ASMA, (S)-aspartic acid-N-monoacetic acid]
- biodegradability in 301C Modified MITI Test [2]: completely converted to inorganic materials in a short time

Compound: C[C@@H](C(=O)[O-])N(CC(=O)[O-])CC(=O)[O-].[Na+].[Na+].[Na+] [Example 88, trisodium salt of (S)-α-alanine-N,N-diacetic acid]
- Appearance after kept for 60 days [3]: Light yellow transparent aqueous solution
- Content of the compound of the formula [I] in aqueous solution after kept for 60 days [3]: 36.5 wt. %

Compound: O=C([O-])C[C@H](NCCN[C@@H](CC(=O)[O-])C(=O)[O-])C(=O)[O-].[Fe+3].[NH4+] [compound 49, iron ammonium (S,S)-ethylenediamine-N,N′-disuccinate]
- Appearance after kept for 60 days [3]: Blackish brown aqueous solution
- Content of the compound of the formula [I] in aqueous solution after kept for 60 days [3]: 29.9 wt. %

Compound: O=C([O-])CN(CC(=O)[O-])c1ccccc1C(=O)[O-].[Na+].[Na+].[Na+] [Example 102, trisodium salt of anthranilic acid-N,N-diacetic acid]
- Appearance after kept for 60 days [3]: Light yellow transparent aqueous solution
- Content of the compound of the formula [I] in aqueous solution after kept for 60 days [3]: 37.8 wt. %

Compound: O=C([O-])C[C@@H](C(=O)[O-])N(CC(=O)[O-])CC(=O)[O-].[Na+].[Na+].[Na+].[Na+] [Example 86, tetrasodium salt of (S)-aspartic acid-N,N-diacetic acid]
- Appearance after kept for 60 days [3]: Light yellow transparent aqueous solution
- Content of the compound of the formula [I] in aqueous solution after kept for 60 days [3]: 36.4 wt. %

Compound: O=C([O-])CC(NCCNC(CC(=O)[O-])C(=O)[O-])C(=O)[O-].[Na+].[Na+].[Na+].[Na+] (stereo not drawn) [Example 112, tetrasodium ethylenediamine-N,N′-disuccinate]
- Appearance after kept for 60 days [3]: Light yellow transparent aqueous solution
- Content of the compound of the formula [I] in aqueous solution after kept for 60 days [3]: 36.4 wt. %

Compound: O=C([O-])CC(NCCNC(CC(=O)[O-])C(=O)[O-])C(=O)[O-].[Na+].[Na+].[Na+].[Na+] (stereo not drawn) [compound 43, tetrasodium ethylenediamine-N,N′-disuccinate]
- Appearance after kept for 60 days [3]: Light yellow transparent aqueous solution
- Content of the compound of the formula [I] in aqueous solution after kept for 60 days [3]: 35.7 wt. %

Compound: O=C([O-])CN[C@@H](CC(=O)[O-])C(=O)[O-].[Na+].[Na+].[Na+] [Example 85, trisodium salt of (S)-aspartic acid-N-monoacetic acid]
- Appearance after kept for 60 days [3]: Light yellow transparent aqueous solution
- Content of the compound of the formula [I] in aqueous solution after kept for 60 days [3]: 35.4 wt. %

Compound: O=C(O)CCN[C@@H](CC(=O)O)C(=O)O [S-ASMP, (S)-aspartic acid-N-monopropionic acid]
- biodegradability in 301C Modified MITI Test [2]: completely converted to inorganic materials in a short time

Compound: O=C([O-])CC(NCCNC(CC(=O)[O-])C(=O)[O-])C(=O)[O-].[Cu+2].[Na+].[Na+] (stereo not drawn) [compound 48, copper disodium ethylenediamine-N,N′-disuccinate]
- Appearance after kept for 60 days [3]: Dark blue transparent aqueous solution
- Content of the compound of the formula [I] in aqueous solution after kept for 60 days [3]: 31.4 wt. %

Compound: O=C([O-])CCN[C@@H](CC(=O)[O-])C(=O)[O-].[Na+].[Na+].[Na+] [compound 31, trisodium salt of (S)-aspartic acid-N-monopropionic acid]
- Appearance after kept for 60 days [3]: Brown aqueous solution
- Content of the compound of the formula [I] in aqueous solution after kept for 60 days [3]: 33.2 wt. %

Compound: O=C([O-])C[C@@H](C(=O)[O-])N(CC(=O)[O-])CC(=O)[O-].[Na+].[Na+].[Na+].[Na+] [compound 30, tetrasodium salt of (S)-aspartic acid-N,N-diacetic acid]
- Appearance after kept for 60 days [3]: Brown aqueous solution
- Content of the compound of the formula [I] in aqueous solution after kept for 60 days [3]: 31.8 wt. %

Compound: CN(CC(=O)O)CC(=O)O [MIDA, N-methyliminodiacetic acid]
- chelate stability constant for calcium [1]: 3.7
- biodegradability in 301C Modified MITI Test [2]: completely decomposed to inorganic materials in a short time
